# Results as given in patent publication US9339477B2, “Antimicrobial composition” (Rohm and Haas Company, priority 2011, dated 2016).
# Assays:
# Type in all cases: cell-based
# [1] = tested on: Escherichia coli (E. coli—ATCC #10536); experiment: High resolution MBC synergy assay, microtiter plate, phosphate buffer containing 35% dipropylene glycol (Example 2); details: for ΣFBC: for the Ca/Cb pair of the same table line; for MBC of component alone (MBCA, MBCB): complete kill in 15 seconds, 35% DPG phosphate buffer
# Protocol: The materials were sourced in the same way as for Example 1. Synergy tests were conducted using standard microtiter plate assays with phosphate buffer containing 35% dipropylene glycol (DPG). […] The MBC plate was inoculated one column at a time with the test microorganism. An aliquot of the inoculated well was transferred at 15 seconds to a plate containing a neutralizing agent (D/E Neutralizing Broth), mixed and held for 5 minutes before being transferred to a growth plate containing trypticase soy broth (TSB). The TSB plate was incubated at 37° C. and read for the presence/absence of growth at 24 hours. […] This microorganism is representative of natural contaminants in many consumer and industrial applications.
# [2] = tested on: Escherichia coli (E. coli—ATCC #10536); experiment: Automated assessment of efficacy in surfactant base, DeltaOD in D/E quench (Example 4); details: for MBC: in 2.85% sodium cocoyl glycinate + 1.85% sodium lauroamphoacetate solution at pH 10; for 15 second bactericidal efficacy in combination with thymol: in combination with thymol at concentrations lower than their MBC, same surfactant formulation, all 4 or 3 replicates, respectively
# Protocol: In these examples, the efficacy of combinations of thymol and propen-2-yl-methyl-cyclohexanols of the invention were tested in a surfactant cleansing formulation comprising 2.85% sodium cocoyl glycinate and 1.85% sodium lauroamphoacetate. This corresponds to a 50% in use dilution with water of a typical neat formulation containing 5.7% cocoyl glycinate and 3.7% % sodium lauroamphoacetate during hand washing. Solutions were prepared such that the concentrations of the surfactant components and test actives were 1.1 times the final desired concentration in order to allow for dilution with the bacterial inoculum in the test. The solutions were manually adjusted to pH 10.0 by dropwise addition of sodium hydroxide solution, as measured with a pH meter at ambient temperature. Solutions of the thymol and/or propen-2-yl-methyl-cyclohexanols of the invention were prepared at a maximum of 24 hours before testing. The same thymol and propen-2-yl-methyl-cyclohexanols were tested as in Example 1.
# The efficacy of the combinations of the present invention was determined against the same bacterium as in Example 1, Escherichia coli (E. coli—ATCC #10536), at a concentration of approximately 1×10^8 bacteria per mL.
# Tests were conducted using standard microtiter plate assays using an automated liquid handling system. 270 μl of the surfactant test solution was pipetted into each well of the microtitre plate (Nunc F Gamma Irradiated 96F untreated microtitre plates of clear polystyrene) and 30 μl of the bacterial suspension was then added. After exactly 15 seconds of bacterial exposure, a 30 μl volume of bacterial cells was withdrawn and transferred to 270 μl of D/E quench solution. After 5 minutes in the D/E quench, the optical density (OD) was measured for each plate in turn at two specific wavelengths (450 nm and 590 nm). These provide a dual check of antimicrobial activity, as the OD450 reading is specific for the yellow colour of D/E quench when bacterial growth is observed, whereas OD590 is specific for the initial purple colour of the D/E quench which is retained if no bacterial growth is observed. […] Delta OD values were calculated by subtracting […] at time=16 hours. […] To identify antibacterially efficacious systems (those preventing appreciable bacterial growth after incubation), the following threshold changes in OD readings have been adopted: if (1). OD450 increases by less than 0.2 absorbance unit (AU) on incubation and (2). […] The number of replicate wells showing either bacterial growth or no growth is also readily assessed by eye by following the colour change. […]
# In each case, binary mixtures were assessed in the weight to weight ratio of thymol to propen-2-yl-methyl-cyclohexanols of 1:2.5.
# [3] = tested on: Escherichia coli (10536 strain); experiment: Antimicrobial efficacy, 15 seconds contact suspension test with plate count (Examples 1 and 3); details: for MBC (minimum biocidal concentration): Example 1 medium, lowest concentration giving complete kill after 15 seconds, upper boundary
# Protocol: The efficacies of antimicrobial agents can be usefully compared by determining the Minimum Biocidal Concentration (MBC). The MBC is defined as the lowest absolute concentration of the particular active that provides complete kill (zero bacterial growth).
# Antimicrobial efficacy is tested against a representative pathogenic bacterial organism, Gram negative Escherichia coli. Concentrations of actives are expressed in terms of the percentage weight/volume (% w/v) throughout Example 1.
# An overnight culture of Escherichia coli (10536 strain) was prepared in 50 ml total volume of TSB broth, grown for ca. 18 hrs at 37° C. and shaken at 150 rpm. 1 ml of this overnight E. coli culture was transferred to 50 ml of fresh TSB broth and incubated at 37° C. at 150 rpm for ca. 4 hours. This culture was separated into equal volumes and centrifuged at 4000 rpm for 15 minutes, washed with sterile saline (0.85% NaCl), centrifuged once more and re-suspended in saline to give a final concentration of 0.8 OD620 equivalent to about 10^8 cells per milliliter for this particular organism. Here, OD620 indicates the absorbance of a sample in a cuvette of 1.0 cm path length at a wavelength of 620 nm. This bacterial stock was used for assaying against antimicrobial actives (in triplicate).
# The following assay describes the testing of 8 materials using 6 dilutions across half of a 96-well micro titre plate (MTP). Using this approach it is possible to assay 16 actives (without replicates) with one full dilution plate, replicating this set up in two halves of the plate columns, 1-6 and 7-12.
# 1M solutions of the test actives were prepared in dimethylsulphoxide (DMSO).
# Aliquots (270 μl) of the materials at 1.11 times the final concentration were dispensed into the wells of the MTP along one column (A1-H1). This MTP was labelled as the “Screening plate”.
# In another MTP, labelled as the “Dilution plate”, 270 μl of D/E neutralising solution from DIFCO Composition was added to column 1. The composition of the neutralising solution was as follows: pancreatic digest of casein, 5.0 g/L; Yeast Extract, 2.5 g/L; Dextrose, 10 g/L, sodium thioglycollate, 1.0 g/L, sodium thiosulphate, 6.0 g/L; sodium bisulphite, 2.5 g/L; Polysorbate 80, 5.0 g/L; lecithin 7.0 g/L; bromocresol purple, 0.02 g/L with a pH in the range 7.6±0.2.
# 270 μl of tryptone diluent solution was added to all the remaining wells of the Dilution MTP (columns 2-6). […]
Compound,ΣFBC ([1]; Table 7),"MBC of component alone (MBCA, MBCB) ([1]; Table 7 series)",MBC [2],15 second bactericidal efficacy in combination with thymol [2],MBC (minimum biocidal concentration) [3],"MBC ([3]; Example 3, protocol of Example 1)",ΣFBC ([1]; Table 8),reduction of thymol concentration required for complete kill ([3]; combination with […] w/v 2-methyl-5-(propen-2-yl)-cyclohexanol versus thymol in isolation),"MBC of component alone (MBCA, MBCB) ([1]; Table 8 series)"
C=C(C)C1CCC(C)C(O)C1 (stereo not drawn) [2-methyl-5-(propen-2-yl)-cyclohexanol],1.00,0.5 weight %,>0.5 % w/v,complete kill,0.3 % w/v,,,,
"C=C(C)[C@@H]1CC[C@@H](C)[C@@H](O)C1 [(1S,2R,5R)-2-methyl-5-(1-methylethenyl)-cyclohexanol]",,,,,,0.3 % w/v,,,
"Cc1ccc(C(C)C)c(O)c1 [thymol, 2-isopropyl-5-methylphenol, reference compound]",1.00,0.2 weight %,,,,,1.00,4 fold,
"C=C(C)[C@@H]1CC[C@@H](C)C[C@H]1O [5-methyl-2-(propen-2-yl)-cyclohexanol, (1R,2S,5R)-5-methyl-2-(propen-2-yl)-cyclohexanol]",,,>0.5 % w/v,complete kill,0.3 % w/v,,1.00,,0.5 weight %
